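Interpolation was linear, between the two tested concentrations surrounding the appropriate level; five concentrations were tested over 48 hours in 96-well plates. GI50: concentration for 50% inhibition of growth.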 Calls of active or inactive are those of the source. No stated cut-off is given here; in the data, active = GI50 up to about 1.1 µM and inactive = higher.
Columns and labels:
Experiment in all cases: DTP human tumour cell line panel, 48 h
[1] = system: ACHN
[2] = system: HCC 2998
[3] = system: HCT-15
[4] = system: HT-29
[5] = system: IGROV-1
[6] = system: MCF7
[7] = system: MDA-MB-435
[8] = system: MDA-N
[9] = system: Malme-3M
[10] = system: NCI/ADR-RES
[11] = system: OVCAR-3
[12] = system: OVCAR-4
[13] = system: RXF 393
[14] = system: SF-539
[15] = system: SK-MEL-28
[16] = system: SN12C
[17] = system: SNB-75
[18] = system: SW-620
[19] = system: SK-OV-3
[20] = system: SNB-19

O=c1[nH]c(=O)n(C2OC(CO)C(O)C2O)c2ccsc12 (configuration not stated)
GI50 [1]: > 100 µM (inactive) | GI50 [2]: > 100 µM (inactive) | GI50 [3]: > 100 µM | GI50 [4]: > 100 µM (inactive) | GI50 [5]: > 100 µM (inactive) | GI50 [6]: > 100 µM (inactive) | GI50 [7]: > 100 µM (inactive) | GI50 [8]: > 100 µM (inactive) | GI50 [9]: > 100 µM (inactive) | GI50 [10]: > 100 µM (inactive) | GI50 [11]: > 100 µM (inactive) | GI50 [12]: > 100 µM (inactive) | GI50 [13]: > 100 µM (inactive) | GI50 [14]: > 100 µM (inactive) | GI50 [15]: > 100 µM (inactive) | GI50 [16]: > 100 µM (inactive) | GI50 [17]: > 100 µM (inactive) | GI50 [18]: > 100 µM (inactive)

CC(C)(C)OC(=O)N1C/C=C\C(=O)C2(OCCO2)c2ccccc21
GI50 [1]: 34.2 µM (inactive) | GI50 [3]: 31.7 µM | GI50 [4]: 19.2 µM (inactive) | GI50 [5]: 16.9 µM (inactive) | GI50 [6]: 31.4 µM (inactive) | GI50 [7]: 17.7 µM (inactive) | GI50 [8]: 20.4 µM (inactive) | GI50 [9]: 22.7 µM (inactive) | GI50 [10]: 47.5 µM (inactive) | GI50 [11]: 15.7 µM (inactive) | GI50 [12]: 28.4 µM (inactive) | GI50 [13]: 21.2 µM (inactive) | GI50 [14]: 22.1 µM (inactive) | GI50 [15]: 22.5 µM (inactive) | GI50 [19]: 37.3 µM (inactive) | GI50 [16]: 26.5 µM (inactive) | GI50 [20]: 35.5 µM (inactive) | GI50 [17]: 28.2 µM (inactive) | GI50 [18]: 25.1 µM (inactive)

Nc1sccc1S(=O)(=O)c1ccsc1N
GI50 [1]: > 100 µM (inactive) | GI50 [2]: > 100 µM (inactive) | GI50 [3]: > 100 µM | GI50 [4]: > 100 µM (inactive) | GI50 [5]: > 100 µM (inactive) | GI50 [6]: > 100 µM (inactive) | GI50 [7]: > 100 µM (inactive) | GI50 [8]: > 100 µM (inactive) | GI50 [9]: > 100 µM (inactive) | GI50 [10]: > 100 µM (inactive) | GI50 [11]: > 100 µM (inactive) | GI50 [12]: > 100 µM (inactive) | GI50 [14]: > 100 µM (inactive) | GI50 [15]: > 100 µM (inactive) | GI50 [19]: > 100 µM (inactive) | GI50 [16]: > 100 µM (inactive) | GI50 [20]: > 100 µM (inactive) | GI50 [17]: > 100 µM (inactive) | GI50 [18]: > 100 µM (inactive)

CC1CN(CCO)CCN1c1ccccc1 (configuration not stated)
GI50 [1]: > 100 µM (inactive) | GI50 [3]: > 100 µM | GI50 [4]: > 100 µM (inactive) | GI50 [5]: > 100 µM (inactive) | GI50 [6]: > 100 µM (inactive) | GI50 [7]: > 100 µM (inactive) | GI50 [8]: > 100 µM (inactive) | GI50 [9]: > 100 µM (inactive) | GI50 [10]: > 100 µM (inactive) | GI50 [11]: > 100 µM (inactive) | GI50 [12]: > 100 µM (inactive) | GI50 [13]: > 100 µM (inactive) | GI50 [14]: > 100 µM (inactive) | GI50 [15]: > 100 µM (inactive) | GI50 [19]: > 100 µM (inactive) | GI50 [16]: > 100 µM (inactive) | GI50 [20]: > 100 µM (inactive) | GI50 [17]: > 100 µM (inactive) | GI50 [18]: > 100 µM (inactive)

CCN(CC)CC(O)C1CCC(c2ccccc2)CC1 (configuration not stated)
GI50 [1]: 18 µM (inactive) | GI50 [2]: 0.627 µM (active) | GI50 [3]: 13.2 µM | GI50 [4]: 10.5 µM (inactive) | GI50 [5]: 35.2 µM (inactive) | GI50 [6]: 22.5 µM (inactive) | GI50 [7]: 17.1 µM (inactive) | GI50 [8]: 16.3 µM (inactive) | GI50 [9]: 16.3 µM (inactive) | GI50 [10]: 43.2 µM (inactive) | GI50 [11]: 44 µM (inactive) | GI50 [13]: 17.4 µM (inactive) | GI50 [14]: 16.7 µM (inactive) | GI50 [15]: 25.6 µM (inactive) | GI50 [19]: 16.1 µM (inactive) | GI50 [16]: 39.7 µM (inactive) | GI50 [20]: 25.8 µM (inactive) | GI50 [17]: 23.7 µM (inactive) | GI50 [18]: 24.8 µM (inactive)

Cc1ccc(/N=N/c2cc(=O)[nH]c(=O)[nH]2)cc1C
GI50 [1]: 11 µM (inactive) | GI50 [2]: 5.01 µM (inactive) | GI50 [3]: 2.85 µM | GI50 [4]: 1.97 µM (inactive) | GI50 [5]: 13.9 µM (inactive) | GI50 [6]: 12.3 µM (inactive) | GI50 [7]: 11.2 µM (inactive) | GI50 [8]: 12.2 µM (inactive) | GI50 [9]: 14.4 µM (inactive) | GI50 [10]: 34 µM (inactive) | GI50 [11]: 1.94 µM (inactive) | GI50 [12]: 13.9 µM (inactive) | GI50 [13]: 5.04 µM (inactive) | GI50 [14]: 11.2 µM (inactive) | GI50 [15]: 15.6 µM (inactive) | GI50 [16]: 4.74 µM (inactive) | GI50 [20]: 17.2 µM (inactive) | GI50 [17]: 3.9 µM (inactive) | GI50 [18]: 4.03 µM (inactive)

C=Cc1c(C)c(O)cc2c1-c1ccc(O)c(C)c1CC2
GI50 [1]: 29.4 µM (inactive) | GI50 [2]: 19 µM (inactive) | GI50 [3]: 12.2 µM | GI50 [4]: 23.7 µM (inactive) | GI50 [5]: 16.6 µM (inactive) | GI50 [6]: 20.9 µM (inactive) | GI50 [7]: 14.1 µM (inactive) | GI50 [8]: 13.6 µM (inactive) | GI50 [9]: 19.6 µM (inactive) | GI50 [10]: 21 µM (inactive) | GI50 [11]: 25.8 µM (inactive) | GI50 [12]: 17.1 µM (inactive) | GI50 [13]: 10.9 µM (inactive) | GI50 [14]: 13.5 µM (inactive) | GI50 [15]: 16.2 µM (inactive) | GI50 [19]: 17 µM (inactive) | GI50 [16]: 17.5 µM (inactive) | GI50 [20]: 24.5 µM (inactive) | GI50 [18]: 23.4 µM (inactive)
